Assay results reported in US12234216B2, “Isotopologues salts, crystalline forms, stereoisomers, of methylone and ethylone and methods of use thereof” (Terran Biosciences Inc., priority 2021, dated 2025).
Structures can show the parent of a compound that is named as a salt.

Experiments:
[1] = Metabolic stability in human liver microsomes; format: in vitro ADME; conditions: human liver microsomes
Experimental: Pooled liver microsomes are purchased from a reputable commercial supplier. Microsomes are stored at […] prior to use. Microsomes (final protein concentration 0.5 mg/mL), 0.1 M phosphate buffer pH 7.4 and test compound (final substrate concentration 1 μM; final DMSO concentration 0.25%) are preincubated at 37° C. prior to the addition of NADPH (final concentration 1 mM) to initiate the reaction. A minus cofactor control incubation is included for each compound tested where 0.1 M phosphate buffer pH 7.4 is added instead of NADPH (minus NADPH). Two control compounds are included with each species. All incubations are performed singularly for each test compound. Each compound is incubated for 0, 5, 15, 30 and 45 min. The control (minus NADPH) is incubated for 45 min only. The reactions are stopped by transferring incubate into acetonitrile at the appropriate time points, in a 1:3 ratio. The termination plates are centrifuged at 3,000 rpm for 20 min at 4° C. to precipitate the protein.
From a plot of ln peak area ratio (compound peak area/internal standard peak area) against time, the gradient of the line is determined. Subsequently, half-life and intrinsic clearance are calculated using the equations below: Elimination rate constant (k)=(−gradient) Half-life (t½)(min)=0.693/k Intrinsic clearance (CLint)(μL/min/mg protein)=V×0.693/t½ where V=Incubation volume (μL)/Microsomal protein (mg)
Relevant control compounds were assessed, ensuring intrinsic clearance values fall within the specified limits (if available).

[2] = system: participants diagnosed with at least moderate post-traumatic stress disorder (PTSD); assay: Double-blind, randomized, placebo-controlled clinical trial of methylone-assisted psychotherapy in PTSD; format: in vivo, human; conditions: for CAPS-5 assessments compared to placebo-treated controls: Intervening Session 1C, 2C, 3C and Study Conclusion; for clinician-rated functional impairment score as measured by SDS / depression as measured by HAM-D: vs placebo-treated controls; for change in CAPS-5 assessment compared to the placebo group: 100-200 mg p.o. initial dose, 3 Experimental Sessions with psychotherapy
Experimental: A multicenter, randomized, double-blind, placebo-controlled trial is conducted to assess the efficacy and safety of methylone-assisted psychotherapy versus psychotherapy with placebo control in participants diagnosed with at least moderate post-traumatic stress disorder (PTSD).
This multicenter, randomized, double-blind, placebo-controlled trial is conducted at various sites in the United States with IRB approval from each study site. A flexible dose of methylone hydrochloride salt or placebo, followed by a supplemental half-dose unless contraindicated by patient's previous response or medical history, is also administered during the Treatment Period with psychotherapy in at least 3 blinded monthly Experimental Sessions. The Supplemental Dose extends the duration of drug effects on the participants during an Experimental Session. Methylone test groups are further subdivided into specific groups receiving only racemic methylone hydrochloride salt, S-methylone hydrochloride salt, or R-methylone hydrochloride salt. An optional Risk Evaluation and Mitigation Strategy (REMS) Protocol may be implemented for the racemic methylone, S-methylone, and placebo-groups. The Treatment Period lasts for approximately 12 weeks. During the Treatment Period, each Experimental Session is followed by three Intervening Sessions of non-drug psychotherapy. Each Experimental Session involves an overnight stay. The Primary Outcome measure, the change in Clinician Administered PTSD Scale for DSM-5 (CAPS-5), is determined by a blinded Independent Rater (IR) pool multiple times throughout the study. The study consists of separate periods for each participant. Initially, prospective participants undergo a Screening Period involving an initial eligibility assessment, a medical history intake, informed consent, and enrollment of eligible participants. Next, a Preparation Period is undertaken for enrolled participants involving medication tapering and clinical baseline assessments to confirm each participant meets enrollment criteria. As part of the Preparation Period, a detailed assessment of co-morbidities to PTSD is recorded. Participants may remain on prescribed courses of selective serotonin reuptake inhibitor (SSRI) or serotonin and norepinephrine reuptake inhibitor (SNRI) treatment. Dosages and/or frequency of administration of a prescribed SSRI or SNRI may be adjusted to fit within study parameters. Participants may be required to taper a prescribed course of medication in order to maintain eligibility within the study. The Treatment Period consists of three monthly Experimental Sessions and associated Intervening Sessions of integrative behavioral psychotherapy. The Treatment Period lasts approximately 12 weeks. Following the Treatment Period is a Follow-up Period and Study Conclusion. During the Follow-up Period and Study Conclusion, participants complete 4 weeks with no study visits, followed by a Study Conclusion visit.
This study compares the effects of three blinded Experimental Sessions of psychotherapy in combination with flexible doses of methylone or placebo administered as described below. Non-drug preparatory and intervening psychotherapy sessions are also included. Patient's weight is determined for dosage calculation. Initial dose is 100 mg unless this will result in a dosage of less than 1.5 mg/kg of patient weight. Initial dose thereby adjusted upward in 25 mg increments to deliver the lowest dose possible of at least 1.5 mg/kg of patient weight. Initial dose for Experimental Session 2 and 3 is cumulative dose calculated by adding the initial dose plus REMS protocol dose used the previous Experimental Session for each patient.
Randomization occurs prior to the initiation of Experimental Session 1. Each participant is provided the next randomized number in a sequence by a blinded study monitor. […]

Male Sprague-Dawley rats = assay: Rat elevated zero-maze model of anxiety; format: in vivo; conditions: for decrease in SAPs compared with chlordiazepoxide / time spent in the open arms compared with chlordiazepoxide: 30 mg/kg ip vs chlordiazepoxide 6 mg/kg ip; for anxiolytic effects compared with chlordiazepoxide: high dose level; for time in the open arms: FIGS. 62-64
Text: The rat zero-maze model is a refined alternative to the plus-maze, the most widely used animal model of anxiety, and consists of an elevated annular platform, divided equally into four quadrants. Two opposite quadrants are enclosed by Perspex walls on both the inner and the outer edges of the platform, while the remaining two opposite quadrants are open being enclosed only by a Perspex “lip”. Animals will show a preference for the closed areas, and avoidance of the open sections is assumed to stem from a rodent's natural aversion to open, exposed spaces. The primary index of anxiety, which reflect changes in open arm preference, is the percentage of time spent on the open areas. A reduction in the amount of activity on the open areas is considered to reflect an increase in anxiety. Other, ethologically-based behaviours are also assessed as indices of anxiety. One of the most important is stretched attend postures (SAP) from closed to open quadrants. […] Shepherd, J K; et al., (1994) Behavioural and pharmacological validation of the elevated “zero-maze” as an animal model of anxiety. Psychopharmacol., 116:56-64.
Male Sprague-Dawley 200-250 g (Envigo UK) rats were used. Animals were group-housed (5 per cage; cage size: 40×40×20 cm) in a temperature-controlled environment (22±2° C.), under a 12 h light-dark cycle (lights on: 08:00 hours) for one week prior to testing. Food and water were freely available. Number of animals per group=5. Animals were moved into the experimental room 16-24 hours before testing.
The elevated 0-maze comprises a black Perspex annular platform (105 cm diameter, 10 cm width) elevated to 65 cm above ground level, divided equally into four quadrants. Two opposite quadrants are enclosed by clear red Perspex walls (27 cm high) on both the inner and outer edges of the platform, while the remaining two opposite quadrants are surrounded only by a Perspex “lip” (1 cm high) which serves as a tactile guide to animals on these open areas.
Subjects were weighed and tail marked before being injected. After a specified pre-treatment time, subjects were placed in a closed quadrant and a 5-min test period were recorded on videotape for subsequent analysis. The maze were cleaned with 5% methanol/water solution and dried thoroughly between test sessions. Behavioural measures comprise percentage time spent on the open areas (% TO) and frequency of stretched attend postures (SAP) from closed to open quadrants. Since the control groups were all treated identically with the same vehicle these were combined to increase power. The Chlordiazepoxide groups were also treated identically with the same dose so these were also combined to increase power. Animals are scored as being in the open area when all four paws were in an open quadrant and in the closed area only when all four paws have passed over the open-closed divide. All testing were carried out between 9.00 and 16.00 hours.
For each study, a 1-way ANOVA was conducted across vehicle, CDP, and drug treatment groups. Each group was compared to the vehicle group and a p-value for treatment determined by Fishers Least Significant Difference (LSD) test. This analysis was performed in GraphPad Prism (Version 9). Formulations: […]
Intraperitoneal (IP): Racemic methylone HCl was formulated in Vehicle 1 (Saline) for injection to concentrations of 1, 3 and 6 mg/mL to provide doses of 5, 15 and 30 mg/kg when administered ip in 5 mL/kg dosing volumes.
Intraperitoneal (IP): S-methylone HCl was formulated in Vehicle 1 (Saline) for injection to concentrations of 0.5, 1, 1.5, 3 and 6 mg/mL to provide doses of 2.5, 5, 7.5, 15 and 30 mg/kg when administered ip in 5 mL/kg dosing volumes.
Intraperitoneal (IP): R-methylone HCl was formulated in Vehicle 1 (Saline) for injection to concentrations of 1, 3 and 6 mg/mL to provide doses of 5, 15 and 30 mg/kg when administered ip in 5 mL/kg dosing volumes. […]

[3] = specific doses, ip, 30 min pretest
[4] = specific doses, ip, 30 min pretest, vs chlordiazepoxide 6 mg/kg, FIGS. 65-67

Row | Structure (SMILES) | difference in half-life and intrinsic clearance compared with the corresponding non-deuterated methylone hydrochloride [1] | CAPS-5 assessments compared to placebo-treated controls [2] | daytime sleepiness as measured by ESS ([2]; Study Conclusion) | clinician-rated functional impairment score as measured by SDS ([2]; Study Conclusion) | depression as measured by HAM-D ([2]; Study Conclusion) | change in CAPS-5 assessment compared to the placebo group ([2]; Study Conclusion) | decrease in SAPs compared with chlordiazepoxide (Male Sprague-Dawley rats) | time spent in the open arms compared with chlordiazepoxide (Male Sprague-Dawley rats) | anxiolytic effects compared with chlordiazepoxide (Male Sprague-Dawley rats) | time in the open arms (Male Sprague-Dawley rats; [3]) | frequency of SAPs (Male Sprague-Dawley rats; [4]) | other results
1 | Cl.[2H]C1([2H])Oc2ccc(C(=O)[C@@H](C)NC)cc2O1 [(R)-Methylone-d2 hydrochloride, (R)-1-(benzo[d][1,3]dioxol-5-yl-2,2-d2)-2-((methyl)amino)propan-1-one HCl] | differences in half-life and intrinsic clearance | – | – | – | – | – | – | – | – | – | – | –
2 | Cl.[2H]C1([2H])Oc2ccc(C(=O)[C@H](C)NC)cc2O1 [(S)-Methylone-d2 hydrochloride, (S)-1-(benzo[d][1,3]dioxol-5-yl-2,2-d2)-2-(methylamino)propan-1-one hydrochloride] | differences in half-life and intrinsic clearance | – | – | – | – | – | – | – | – | – | – | –
3 | CN[C@H](C)C(=O)c1ccc2c(c1)OCO2 [(R)-Methylone Hydrochloride, (R)-1-(benzo[d][1,3]dioxol-5-yl)-2-(methylamino)propan-1-one hydrochloride] | – | Significant improvements in CAPS-5 assessments | significant improvement in lessening daytime sleepiness | significant improvement in clinician-rated functional impairment score | significant improvement depression | significant mean reduction in CAPS-5 assessment | to the same level as chlordiazepoxide | as effective as chlordiazepoxide | anxiolytic effects as effective as chlordiazepoxide | increase time in the open arms | decreased the frequency of SAPs as effectively as the benzodiazepine chlordiazepoxide | adverse anxiogenic incidents ([2]; compared to placebo-treated controls): without a significant increase in adverse anxiogenic incidents; frequency of SAPs (Male Sprague-Dawley rats; 30 mg/kg ip): significantly decreasing SAPs; frequency of SAPs, trend with dose (Male Sprague-Dawley rats; 5, 15 and 30 mg/kg ip): dose dependent decrease in SAPs; time spent in the open arms, trend with dose (Male Sprague-Dawley rats; 5, 15 and 30 mg/kg ip): dose dependent increase in time spent in the open arms; anxiogenic effect (Male Sprague-Dawley rats; any dose (5, 15, 30 mg/kg ip)): did not show any anxiogenic effect at any dose; anxiogenic effects at lower doses (Male Sprague-Dawley rats; ip): not seen
4 | Cl.[2H]C([2H])([2H])NC(C)C(=O)c1ccc2c(c1)OCO2 (racemic) [(rac)-Methylone-d3 hydrochloride, 1-(benzo[d][1,3]dioxol-5-yl)-2-((methyl-d3)amino)propan-1-one HCl] | differences in half-life and intrinsic clearance | – | – | – | – | – | – | – | – | – | – | –
5 | CN[C@@H](C)C(=O)c1ccc2c(c1)OCO2 [(S)-Methylone Hydrochloride, (S)-1-(benzo[d][1,3]dioxol-5-yl)-2-(methylamino)propan-1-one hydrochloride] | – | Significant improvements in CAPS-5 assessments | significant improvement in lessening daytime sleepiness | significant improvement in clinician-rated functional impairment score | significant improvement depression | significant mean reduction in CAPS-5 assessment | even more effective than chlordiazepoxide at reducing SAPs | as effective as chlordiazepoxide at increasing time spent in the open arms | anxiolytic effects as effective as chlordiazepoxide | increase time in the open arms | decreased the frequency of SAPs as effectively as the benzodiazepine chlordiazepoxide | total dosage of drug needed for significant mean reduction in CAPS-5, compared to the racemic methylone-treated subgroup ([2]; Study Conclusion): lower total dosage of drug; frequency of SAPs, trend with dose (Male Sprague-Dawley rats; 2.5 mg/kg and 5 mg/kg ip): dose dependent increase in SAPs; time spent in the open arms, trend with dose (Male Sprague-Dawley rats; 5 mg/kg, 7.5 mg/kg and 15 mg/kg ip): time spent in the open arms decreased as the dose increased; frequency of SAPs, trend with dose (Male Sprague-Dawley rats; 7.5 mg/kg, 15 mg/kg and 30 mg/kg ip): dose dependent decrease in SAPS; overall effect on anxiety (Male Sprague-Dawley rats; 30 mg/kg ip): effective anxiolytic on all measures; time spent in the open arms (Male Sprague-Dawley rats; 30 mg/kg ip): time in the open arms increased; anxiogenic effects at lower doses (Male Sprague-Dawley rats; ip, hydrochloride): anxiogenic effects at lower doses
